Experiments:
Type in all cases: cell-based, human
HT1080 cells = experiment: MTT cell viability (cytotoxicity) assay; settings: even at 1 mg/mL, 24 h, in the presence and absence of FBS
Method: Equal number of HT1080 cells (4000 cells per well) cultured in 96-well plates with serum and serum free media were treated with various concentrations of CGlc for 24 h. Cell viability was then evaluated with the 3-(4,5-dimethyl[…])-2,5-diphenyltetrazolium bromide (MTT) spectrophotometrically (GENios® microplate reader, Tecan Austria GmbH, Austria) which measures conversion of tetrazolium salt in to blue formazan by viable cells.

MMP-9 promoter = MMP-9 promoter luciferase reporter assay in transfected HT1080 cells; settings: PMA-stimulated transfected HT1080 cells
Method: (§1) HT1080 cells cultured in 10 cm culture dishes were transiently transfected with MMP-9 promoter containing pGL3 luciferase reporter vector (Promega, Madison, Wis.) or AP-1 binding site containing luciferase reporter plasmid (Colontech, Palo Alto, […]) by Lipofectamine™ 2000™ reagent (Invitrogen). Beta-galactosidase expression vector co-transfected with the reporter vector to serve as an internal control of transfection efficiency. Transfected cells sub-cultured in 24-well plates were treated with different concentrations of CGlc. Following stimulation with PMA cells were cultured for 24 h. Cells were washed once with cold PBS and lysed with 200 μl/well lysis buffer (25 mM Tri-HCl, pH 8.0, containing 2 mM DDT and 1% Triton-X 100). Aliquots of cell lysate and luciferase substrate (Promega) were mixed in equal amounts in a 96-well plate and luminescence intensity was measured with a luminescence microplate reader (Tecan Austria GmbH, Austria). Beta-galactosidase activity was measured with ONPG buffer. The level of reporter gene expression was determined as a ratio, compared with cells stimulated by PMA (10 ng/mL) alone and represented as relative luciferase activity.
(§2) Transfection efficiency was determined by X-Gal staining method. Briefly, transfected cells were fixed with 0.5% glutaraldehyde and stained with X-Gal solution containing 20 mM K3Fe(CN)6, K4Fe(CN)6 and 1 mM MgCl2. […]

MMP-9 [1] = experiment: Fluorescence conjugated gelatin digestion assay on conditioned medium of PMA-stimulated HT1080 cells
Method: HT1080 cells grown in 24-well plates were treated with different concentrations of CGlc and conditioned media were collected by centrifugation at 13 000×g following PMA (10 ng/mL) treatment. Enzyme activities of conditioned media in 50 mmol/l Tris-HCl buffer (pH 7.5), 0.15 mol/l NaCl, 10 mmol/l CaCl2, 0.02% NaN3 (TNC buffer) containing 0.05% Brij 35 were determined using fluorescence conjugated gelatin peptide (Collagen Technology Corporation, Tokyo, Japan) as the substrate.
Fluoropeptides were incubated with conditioned media at 37° C. for 20 h, and the reaction was terminated by addition of 3% acetic acid. Fluorescence intensity was measured at 495 nm (excitation) and 520 nm (emission) with a GENios® fluorescence microplate reader (Tecan Austria GmbH, Austria).
The MMP-9 inhibitory effect of CGlC on MMP-9 activity stimulated by PMA in HT1080 cells was further confirmed using more sensitive fluorescence conjugated gelatin digestion assay which use fluorescence conjugated gelatin peptides as the substrate for MMP-9. The amount of active gelatinases (MMP-9/-2) present in CGIc treated stimulated conditioned medium obtained from incubation of HT1080 cells was assesssed from the resulting fluorescence activity. […] Therefore it can be presumed that difference in fluorescence intensities were mainly due to activity of MMP-9. […]

AP-1 = AP-1 binding site luciferase reporter assay in transfected HT1080 cells; settings: 500 μg/mL CGlc, PMA-stimulated transfected HT1080 cells
Method: as §1, §2

MMP-9 [2] = experiment: Gelatin zymography of MMP-9 gelatinolytic activity in conditioned medium of PMA-stimulated HT1080 cells; settings: 500 μg/mL CGlc, HT1080 cells stimulated with PMA 10 ng/mL
Method: MMP-9 activity in HT1080 cells was assayed by gelatin zymography as described previously. For this, approximately 2×10^5 cells/mL HT1080 cells in serum free DMEM medium were seeded in 24-well plates and pre-treated with different concentrations of CGlc for 1 h. MMP-9 expression was stimulated by treatment of PMA (10 ng/mL) and cells were cultured for 48 h. Cell conditioned medium was subjected to substrate gel electrophoresis. Similar amount of protein containing conditioned media were applied without reduction to a 10% (w/v) polyacrylamide gel impregnated with 1 mg/mL gelatin. After electrophoresis, gel was washed in 50 mM Tris-HCl (pH 7.5) containing 2.5% Triton X-100 at room temperature and incubated overnight at 37° C. in zymography developing buffer containing 10 mM CaCI2, 50 mM Tris-HCl, and 150 mM NaCl. The gel was then stained with a […]. In this assay clear zones against the blue background indicate the presence of gelatinolytic activity.
The image of the gel was recorded using Fujifilm Image Reader LAS-3000 software in Science Image System, LAS 3000 (Fujifilm Life Science, Tokyo, Japan). The gelatinolytic activities were quantified using Multi Gauge V3.0 software.
To analyze the inhibition of MMP-9 mediated gelatinolytic activity in conditioned medium stimulated with PMA, we utilized human fibrosarcoma cell line, HT1080. […]

Substance: Carboxylated glucosamine [CGlc]
- toxicity on HT1080 cells (MTT viability) (HT1080 cells): did not show any toxicity
- inhibition of MMP-9-luciferase reporter gene activity (MMP-9 promoter; 100 μg/mL CGlc): Approximately 50%
- inhibition of MMP-9-luciferase reporter gene activity (MMP-9 promoter; 500 μg/mL CGlc): approximately 3 fold
- reduction of fluorescence intensity (MMP-9 [1]; 100 μg/mL CGlc): about 50%
- decrease of relative fluorescence activity (MMP-9 [1]; 500 μg/mL CGlc): up to 66%
- suppression of AP-1 reporter activity (AP-1): 2-3 fold
- inhibition of MMP-9 lead gelatinolytic activity (MMP-9 [2]): approximately 60%

From patent US20090240046A1, “CARBOXYLATED GLUCOSAMINE COMPOUNDS FOR INHIBITING THE ACTIVATION AND EXPRESSION OF MATRIX METALLOPROTEINASE-9 IN HUMAN FIBROSARCOMA CELLS AND MATRIX METALLOPROTEINASE-9 INHIBITORS CONTAINING THE SAME” (priority 2006, published 2009)
